Here are results for two compounds from patent publication US20250230190A1, “COMPOSITION FOR ENHANCING ACTIVITY OF NATURAL KILLER CELLS” (Ingenium Therapeutics, priority 2021, published 2025).

Where no end group is shown, it is not given here.

For data set [1], the system named is NK92 cells. As to the kind of experiment: Recovery of cytotoxicity of NK92 cells decreased by TGF-β (calcein-AM release). Type of data set: cell-based. The following applies: effector NK92 cells pretreated with 20 μM peptide or 5 μM SB431542 plus 10 ng/ml TGF-β; target cells H460, H3122, K562; E:T 20:1; 4 hours. The method, then: NK92 cells were cultured in a 37° C. CO2 incubator (water jacketed incubator, Thermo electron corporation) supplied with 5% CO2 by adding an α-MEM (Welgene) culture medium added with 12.5% fetal bovine serum (FBS, Corning, united states origin, 35-015-CV) and 12.5% horse serum (Gibco) according to ATCC culture conditions with 0.2 mM myo-inositol, 0.1 mM 2-mercaptoethanol, 0.02 mM folic acid, 1% antibiotics-antimycotic (Gibco) and IL-2 cytokine (Peprotech) at a concentration of 20 ng/ml to be used as a culture medium.
The cells were cultured in about 20 to 30 ml in a T-75 flask (Thermo) at a concentration of 1×10^5 cells/ml, and centrifuged at 1000 rpm for 5 minutes every 2 to 3 days using a centrifuge (Beckman Coulter) to remove the supernatant, and then the culture medium was replaced. […]
The target cells stained with calcein-AM in Example [2-2] were dispensed in a 96-well plate, respectively, and treated with the effector cells prepared in Example [2-1]. […] The culture medium cultured above was centrifuged at 100 rcf for 5 minutes to separate the supernatant, and 100 μl each was dispensed into a 96-well black plate, and then ELISA assay (Fluorescence 480 nm/530 nm, SpectraMax i3x Molecular Device) was performed.

Data set [2] concerns H460 lung cancer cell line. As to the kind of experiment: Recovery of sensitivity of NK cells to cancer cells decreased by TGF-β. The format is cell-based. Conditions: H460 target cells pretreated with 20 μM peptide or 5 μM SB431542 plus 10 ng/ml TGF-β; fresh NK92 effector cells, E:T 20:1; 4 hours. The method, then:
To this end, first, 1×10^5 cells/ml of a H460 lung cancer cell line was added with 20 μM the peptide of Example [1-5] or 5 μM a TGF-β signal inhibitor SB431542, respectively, cultured at 37° C. for 2 hours, and then added with 10 ng/ml of TGF-β, and cultured again for 24 hours under the same conditions, respectively. Then, the cells were added with 20 μM the peptide of Example [1-5] or 5 μM SB431542, cultured at 37° C. for 2 hours, and then added with 10 ng/ml of TGF-β, and cultured under the same conditions for 24 hours, respectively. 1×10^6 cells/ml of the H460 cells cultured above were cultured for 1 hour at 37° C. with a culture medium added with 5 μl of calcein-AM (Invitrogen) and stained, and then centrifuged at 1000 rpm for 5 minutes and washed to be prepared as ‘target cells.’
As described above, the target cells stained with calcein-AM were dispensed in a 96-well plate, respectively, and treated with untreated (fresh) NK92 cells as effector cells at an E:T ratio of 20:1, and cultured at 37° C. for 4 hours. The culture medium cultured above was centrifuged at 100 rcf for 5 minutes to separate the supernatant, and 100 μl each was dispensed into a 96-well black plate, and then ELISA assay (Fluorescence 480 nm/530 nm, SpectraMax i3x Molecular Device) was performed.

The test system of data set [3] is NK92 cells. The data set is described as follows: Fratricide inhibition of NK cells. Conditions: NK92 target cells pretreated with 20 μM peptide or 5 μM SB431542 plus 10 ng/ml TGF-β; fresh NK92 (20:1) or primary NK (10:1) effector cells; 4 hours. The format is cell-based. The method, then: To this end, 1×10^6 cells/ml of the NK92 cells cultured in the same manner as Example [2-1] were cultured for 1 hour at 37° C. with a culture medium added with 5 μl of calcein-AM (Invitrogen) and stained, and then centrifuged at 1000 rpm for 5 minutes and washed to be prepared as ‘target cells.’ As described above, the target cells stained with calcein-AM were dispensed in a 96-well plate, respectively, and treated with untreated (fresh) NK92 cells or primary NK cells as effector cells at the ratio of 20:1 or 10:1 in the same manner as Example [2-3], and cultured at 37° C. for 4 hours. The culture medium cultured above was centrifuged at 100 rcf for 5 minutes to separate the supernatant, and 100 μl each was dispensed into a 96-well black plate, and then ELISA assay (Fluorescence 480 nm/530 nm, SpectraMax i3x Molecular Device) was performed.

The subject of data set [4] is primary NK cells. The data set is described as follows: Recovery of cytotoxicity of primary NK cells decreased by TGF-β (calcein-AM release). The format is cell-based, human. Conditions: effector primary NK cells pretreated with 20 μM peptide plus 10 ng/ml TGF-β; target cells H460, H3122, K562; E:T 10:1; 4 hours. The method, then: 2 μl of Rosettesep Human CD3 depletion cocktail (STEMCELL technologies, catalog #15621) per 1 ml of blood was added to umbilical cord blood (IRB approval number P01-201610-31-002) donated from the hospital and reacted for 20 minutes. […] At this time, it could be noted that the blood and the Ficoll layer were not mixed. To separate the cell layer from the blood, red blood cells and CD3 cells were isolated and discharged from the blood by centrifugation under conditions of 2000 rpm and Decel 0 for 25 minutes using a centrifuge (Beckman Coulter). The CD3-isolated cells reacted with 10 ml of an ACK buffer for 10 minutes to remove remaining red blood cells, and then washed twice using phosphate-buffered saline (PBS) added with 2% FBS. The washing was performed by centrifuging at 1500 rpm for 5 minutes using a centrifuge (Beckman Coulter) to remove the supernatant. The cells obtained above were used to be cultured as NK cells.
The NK cells were cultured by adding alpha-MEM (Welgene) added with 10% FBS (Corning, United States origin, 35-015-CV) with 10 ng/ml IL-15 (Peprotech), 10 ng/ml IL-21 (Peprotech), […] hydrocortisone (Peprotech) and 1% antibiotics-antimycotic (Gibco). […]

In the case of `NC(=O)c1ccc(-c2nc(-c3ccc4c(c3)OCO4)c(-c3ccccn3)[nH]2)cc1` [SB431542], in data set [1], the “cytotoxicity of NK92 cells” value is reported as “recovered”. In data set [2], the “cytotoxicity of the NK cells for treated H460 cells” value is on record as “recovered again”. Besides, in data set [3], the “fratricide activity of the NK cells” value is recorded as “significantly reduced”.

Turning to “GSKKVILDLPLVI [peptide of Example [1-5]]”, in data set [4], the “cytotoxicity of primary NK cells” value is given as “equally confirmed”. Besides, in data set [1], the “cytotoxicity of NK92 cells” value is recorded as “recovered”. In data set [2], the “cytotoxicity of the NK cells for treated H460 cells” value is on record as “recovered again”.
